# Source: article PMC10970734, “Identification of an Intravenous Injectable NK1 Receptor Antagonist for Use in Traumatic Brain Injury” (International Journal of Molecular Sciences, 2024)
# Legend:
# rodent model of TBI = experiment: BBB permeability after TBI, Evan's blue extravasation; format: in vivo, Sprague Dawley rats; details: rat TBI
# Description: Injury was induced in halothane-anesthetized (ProVet) male Sprague Dawley rats (400 ± 20 g) using acceleration-induced impact TBI [29, 93]. This model involves impacting a 10 mm diameter, 3 mm thick stainless steel disc fixed centrally to the exposed skull between the lambda and bregma with an accelerating impactor. The impactor was a 450 g brass weight dropped from a height of 2 m. […] All animals were fed and watered ad libitum before the induction of injury. During both surgery and the immediate recovery phase, rat rectal temperature was maintained using a thermostatically controlled heating pad. Immediately after injury, animals were manually ventilated until stable respiration was restored, usually in <5 min. After injury, all wounds were sutured. Blood pressure was monitored, both before and after injury, using a femoral arterial line.
# The optimal dose of the NK1 receptor antagonist was determined from the level of BBB permeability using EB dye extravasation as the BBB marker [94, 95]. Briefly, EUC-001 was administered intravenously 30 min after TBI at doses ranging between 0.03 and 10 mg/kg in six steps (n = 3 per group). […] The supernatants were measured at 610 nm for absorbance of EB using a spectrophotometer (Cole-Parmer, Vernon Hills, IL, USA). Evans blue is expressed as mg/mg of the brain tissue against a standard curve.
# NK1R = NK1R (Homo sapiens, UniProt P25103); experiment: Radioligand binding, competition for [3H]SP, CHO cells transfected with human NK1R; design: expressed in transfected cells; host or cells: CHO cells (ATCC); details: competition for [3H]SP binding (0.6 nM)
# Procedure: The affinity of EUC-001 for the human NK1R was assessed by radioligand binding assays using Chinese hamster ovary (CHO) cells transfected with the human NK1R. Radioligand binding studies, evaluating competition for [^3H]
# Radioligand binding assays were performed using CHO cells (ATCC, Middlesex, UK) transfected with the human NK1R (accession number NM_001058). Assays were performed in 50 mM HEPES buffer (pH 7.4; Sigma-Aldrich, St Louis, MO, USA) containing BSA (0.04%; Sigma-Aldrich, St Louis, MO, USA), leupeptin (8 μg/mL; Sigma-Aldrich, St Louis, MO, USA), MnCl2 (3 mM; Sigma-Aldrich, St Louis, MO, USA) and phosphoramidon (2 μM; Sigma-Aldrich, St Louis, MO, USA). In total, 250 μL of membrane suspension was incubated with 125 μL of unlabelled EUC-001 (synthesized by Hoffmann-La Roche, Basel, Switzerland) dissolved in assay buffer, and 125 μL of [^3H]SP (final concentration 0.6 nM; Amersham Biosciences, Amersham, UK). Displacement curves were determined with seven concentrations of EUC-001. Following incubation (60 min at room temperature), the mixture was rapidly filtered through pre-soaked Whatman GF/C filters (Sigma-Aldrich, St Louis, MO, USA) and washed with 2 × 2 mL HEPES buffer (Sigma-Aldrich, St Louis, MO, USA), and bound radioactivity was measured by scintillation counting (Beckman Coulter, Brea, CA, USA). Assays were performed in triplicate in 2 separate experiments.
# Sequence of NK1R (P25103 whole entry): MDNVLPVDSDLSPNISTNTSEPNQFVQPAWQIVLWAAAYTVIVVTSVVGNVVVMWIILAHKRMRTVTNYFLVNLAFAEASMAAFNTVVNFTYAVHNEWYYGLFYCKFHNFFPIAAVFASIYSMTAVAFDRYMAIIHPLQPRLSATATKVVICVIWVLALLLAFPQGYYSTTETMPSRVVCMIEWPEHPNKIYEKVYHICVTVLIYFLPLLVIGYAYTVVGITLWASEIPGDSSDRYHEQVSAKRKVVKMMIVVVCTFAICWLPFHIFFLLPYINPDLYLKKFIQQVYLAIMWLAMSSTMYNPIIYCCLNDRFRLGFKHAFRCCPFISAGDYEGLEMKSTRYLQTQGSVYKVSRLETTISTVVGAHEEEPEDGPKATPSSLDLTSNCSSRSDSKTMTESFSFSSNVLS
structure (smiles),measurement,setting,value
"Cc1ccccc1-c1cc(N2CCN(C)CC2)ncc1C(=O)N(C)Cc1cc(C(F)(F)F)cc(C(F)(F)F)c1 [EUC-001, N-(3,5-Bis-trifluoromethyl-benzyl)-N-methyl-6-(4-methyl-piperazine-1-yl)-4-o-tolyl-nicotinamide]",Evan's blue leakage relative to drug vehicle,"rodent model of TBI; 10 mg/kg 30 min post-injury, tissues 5 h after injury",significant reduction
same,"IC50, decrease in Evan's blue extravasation","rodent model of TBI; bolus iv 30 min after injury, 0.03-10 mg/kg",0.43 mg/kg
same,Ki,NK1R,0.575 nM
